According to US20070117743A1, “New antitumoral compounds” (priority 2003, published 2007):
Where a SMILES comes first, the peptide text is derived from it. Bridges are numbered along the chain shown (N, C = ends). [ ]: non-standard residue; d: D form. The star is where a group is joined. Hexanoyl(4S-Me) = CC[C@H](C)CCC(=O)*; d(aIle) = CC[C@H](C)[C@@H](N)C(=O)O; d(aThr) = C[C@@H](O)[C@@H](N)C(=O)O; Tic = O=C(O)[C@@H]1Cc2ccccc2CN1; Orn = NCCC[C@H](N)C(=O)O; Dhb = C/C=C(\N)C(=O)O

Tests used:
Format in all cases: cell-based, human
Details in all cases: 48 hours exposure, SRB
A-549 = test: SRB colorimetric assay of cell growth and viability, A-549
SK-MEL-28 = test: SRB colorimetric assay of cell growth and viability, SK-MEL-28
HT-29 = test: SRB colorimetric assay of cell growth and viability, HT-29
LoVo = test: SRB colorimetric assay of cell growth and viability, LoVo
LoVo-Dox = test: SRB colorimetric assay of cell growth and viability, LoVo-Dox
Outline: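 Human tumor cells seeded at 5×10^3/well in RPMI 1640 10% FBS, attached 18 hours, then exposed 48 hours to compound (10 to 10^−8 μg/mL). TCA-fixed, SRB-stained, OD 490 nm; triplicates give GI, TGI and LC values.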

DU-145 = test: SRB colorimetric assay of cell growth and viability, DU-145
SK-BR-3 = test: SRB colorimetric assay of cell growth and viability, SK-BR-3
IGROV-1 = test: SRB colorimetric assay of cell growth and viability, IGROV-1
IGROV-ET = test: SRB colorimetric assay of cell growth and viability, IGROV-ET
HeLa = test: SRB colorimetric assay of cell growth and viability, HeLa
HeLa-APL = test: SRB colorimetric assay of cell growth and viability, HeLa-APL
K-562 = test: SRB colorimetric assay of cell growth and viability, K-562
PANC-1 = test: SRB colorimetric assay of cell growth and viability, PANC-1

## C/C=C1\NC(=O)[C@@H]2Cc3ccccc3CN2C(=O)[C@@H](C(C)C)NC(=O)[C@@H]([C@@H](C)CC)NC(=O)[C@H](NC(=O)[C@H](NC(=O)[C@H](CCCN)NC(=O)[C@H]2CCCN2C(=O)[C@H](NC(=O)[C@@H](NC(=O)[C@@H](NC(=O)[C@H](NC(=O)CC[C@@H](C)CC)C(C)C)[C@@H](C)O)C(C)C)C(C)C)[C@@H](C)CC)[C@@H](C)OC(=O)[C@H](C(C)C)NC1=O [Compound 77, [Tic^3, (4S)-MeHex^14]-KF] ({Hexanoyl(4S-Me)}-[dV]TV[dV][dP][Orn][d(aIle)][d(aThr)][d(aIle)][dV][Tic][Dhb]V; ester 8-C)
A-549
  TGI A-549: 2.58E−06 Molar
A-549; read-out: GI50 A-549
  GI50: 1.52 µM
A-549; read-out: LC50 A-549
  CC50: 4.4 µM
SK-MEL-28
  GI50: 1.58 µM
  TGI MEL-28: 3.41E−06 Molar
SK-MEL-28; read-out: LC50 MEL-28
  CC50: 6.71 µM
HT-29
  TGI HT-29: 2.21E−06 Molar
HT-29; read-out: GI50 HT-29
  GI50: 1.23 µM
HT-29; read-out: LC50 HT-29
  CC50: 3.97 µM
LoVo
  GI50: 0.913 µM
  TGI LOVO: 1.76E−06 Molar
LoVo; read-out: LC50 LOVO
  CC50: 3.4 µM
LoVo-Dox
  GI50: 0.271 µM
  TGI LOVO-DOX: 8.32E−07 Molar
LoVo-Dox; read-out: LC50 LOVO-DOX
  CC50: 2.14 µM
DU-145
  GI50: 3.63 µM
  LC50 (concentration causing 50% net cell kill): 6.74 µM
  TGI DU-145: 6.71E−06 Molar
SK-BR-3
  GI50: 0.873 µM
  LC50: 5.51 µM
  TGI SK-BR-3: 2.19E−06 Molar
IGROV-1
  GI50: 1.61 µM
  LC50 (concentration causing 50% net cell killing): 4.26 µM
  TGI IGROV: 2.62E−06 Molar
IGROV-ET
  GI50: 1.42 µM
  TGI IGROV-ET: 2.34E−06 Molar
IGROV-ET; read-out: LC50 IGROV-ET
  CC50: 3.86 µM
HeLa
  GI50: 1.43 µM
  TGI HELA: 2.29E−06 Molar
HeLa; read-out: LC50 HELA
  CC50: 3.66 µM
HeLa-APL
  GI50: 1.57 µM
  TGI HELA-APL: 2.53E−06 Molar
HeLa-APL; read-out: LC50 HELA-APL
  CC50: 4.07 µM
K-562
  GI50: 0.017 µM
  TGI K-562: 3.99E−06 Molar
K-562; read-out: LC50 K-562
  CC50: 6.71 µM
PANC-1
  GI50: 6.74 µM
  TGI PANC-1: 6.74E−06 Molar
PANC-1; read-out: LC50 PANC-1
  CC50: 6.74 µM
